Measurements from ChEMBL document CHEMBL3526080, “In vitro inhibition of the bile salt export pump correlates with risk of cholestatic drug-induced liver injury in humans” (Drug Metab Dispos, 2012).

Assays:
Bile salt export pump [1] = biological target: Bile salt export pump (Homo sapiens, UniProt O95342); experiment: Inhibition of human BSEP expressed in plasma membrane vesicles of Sf21 cells assessed as inhibition of ATP-dependent [3H]taurocholate uptake; format: cell membranes
Bile salt export pump [2] = biological target: Bile salt export pump (Rattus norvegicus, UniProt O70127); experiment: Inhibition of Sprague-Dawley rat Bsep expressed in plasma membrane vesicles of Sf21 cells assessed as inhibition of ATP-dependent [3H]taurocholate uptake; format: cell membranes
Bile salt export pump (Rattus norvegicus, UniProt O70127), sequence (O70127 whole entry): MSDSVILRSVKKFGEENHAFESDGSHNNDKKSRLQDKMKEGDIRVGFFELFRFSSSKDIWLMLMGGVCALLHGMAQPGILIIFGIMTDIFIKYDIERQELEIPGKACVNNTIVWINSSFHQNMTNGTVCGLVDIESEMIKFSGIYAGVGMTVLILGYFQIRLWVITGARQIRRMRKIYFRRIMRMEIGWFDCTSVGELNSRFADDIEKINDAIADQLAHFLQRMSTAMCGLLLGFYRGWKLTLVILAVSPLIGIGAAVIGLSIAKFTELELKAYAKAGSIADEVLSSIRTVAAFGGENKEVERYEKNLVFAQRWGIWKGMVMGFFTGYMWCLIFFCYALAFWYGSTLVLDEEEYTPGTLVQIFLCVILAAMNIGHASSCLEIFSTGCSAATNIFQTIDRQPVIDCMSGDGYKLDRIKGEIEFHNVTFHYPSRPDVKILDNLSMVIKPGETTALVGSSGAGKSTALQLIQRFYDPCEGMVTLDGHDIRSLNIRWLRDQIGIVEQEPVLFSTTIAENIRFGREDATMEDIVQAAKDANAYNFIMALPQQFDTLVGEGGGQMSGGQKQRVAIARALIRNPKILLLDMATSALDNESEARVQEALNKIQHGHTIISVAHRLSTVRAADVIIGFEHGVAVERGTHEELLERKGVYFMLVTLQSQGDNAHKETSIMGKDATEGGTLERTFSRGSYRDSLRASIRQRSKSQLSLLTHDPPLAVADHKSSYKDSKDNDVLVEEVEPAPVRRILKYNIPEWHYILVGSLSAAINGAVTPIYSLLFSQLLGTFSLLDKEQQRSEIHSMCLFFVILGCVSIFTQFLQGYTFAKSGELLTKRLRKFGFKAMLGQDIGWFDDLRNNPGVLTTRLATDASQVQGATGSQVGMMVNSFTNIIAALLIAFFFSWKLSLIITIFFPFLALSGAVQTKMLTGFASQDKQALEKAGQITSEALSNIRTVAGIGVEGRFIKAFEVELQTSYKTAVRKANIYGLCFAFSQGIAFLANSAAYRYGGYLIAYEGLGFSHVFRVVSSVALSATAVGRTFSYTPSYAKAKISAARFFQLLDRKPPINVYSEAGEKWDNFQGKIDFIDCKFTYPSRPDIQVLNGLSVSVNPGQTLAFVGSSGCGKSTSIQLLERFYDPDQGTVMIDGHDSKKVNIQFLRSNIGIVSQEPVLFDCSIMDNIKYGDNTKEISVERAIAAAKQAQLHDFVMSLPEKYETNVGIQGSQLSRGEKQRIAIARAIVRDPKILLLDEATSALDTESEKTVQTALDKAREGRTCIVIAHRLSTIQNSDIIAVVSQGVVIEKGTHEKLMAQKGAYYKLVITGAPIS

Bile salt export pump (Homo sapiens, UniProt O95342), sequence (O95342 whole entry): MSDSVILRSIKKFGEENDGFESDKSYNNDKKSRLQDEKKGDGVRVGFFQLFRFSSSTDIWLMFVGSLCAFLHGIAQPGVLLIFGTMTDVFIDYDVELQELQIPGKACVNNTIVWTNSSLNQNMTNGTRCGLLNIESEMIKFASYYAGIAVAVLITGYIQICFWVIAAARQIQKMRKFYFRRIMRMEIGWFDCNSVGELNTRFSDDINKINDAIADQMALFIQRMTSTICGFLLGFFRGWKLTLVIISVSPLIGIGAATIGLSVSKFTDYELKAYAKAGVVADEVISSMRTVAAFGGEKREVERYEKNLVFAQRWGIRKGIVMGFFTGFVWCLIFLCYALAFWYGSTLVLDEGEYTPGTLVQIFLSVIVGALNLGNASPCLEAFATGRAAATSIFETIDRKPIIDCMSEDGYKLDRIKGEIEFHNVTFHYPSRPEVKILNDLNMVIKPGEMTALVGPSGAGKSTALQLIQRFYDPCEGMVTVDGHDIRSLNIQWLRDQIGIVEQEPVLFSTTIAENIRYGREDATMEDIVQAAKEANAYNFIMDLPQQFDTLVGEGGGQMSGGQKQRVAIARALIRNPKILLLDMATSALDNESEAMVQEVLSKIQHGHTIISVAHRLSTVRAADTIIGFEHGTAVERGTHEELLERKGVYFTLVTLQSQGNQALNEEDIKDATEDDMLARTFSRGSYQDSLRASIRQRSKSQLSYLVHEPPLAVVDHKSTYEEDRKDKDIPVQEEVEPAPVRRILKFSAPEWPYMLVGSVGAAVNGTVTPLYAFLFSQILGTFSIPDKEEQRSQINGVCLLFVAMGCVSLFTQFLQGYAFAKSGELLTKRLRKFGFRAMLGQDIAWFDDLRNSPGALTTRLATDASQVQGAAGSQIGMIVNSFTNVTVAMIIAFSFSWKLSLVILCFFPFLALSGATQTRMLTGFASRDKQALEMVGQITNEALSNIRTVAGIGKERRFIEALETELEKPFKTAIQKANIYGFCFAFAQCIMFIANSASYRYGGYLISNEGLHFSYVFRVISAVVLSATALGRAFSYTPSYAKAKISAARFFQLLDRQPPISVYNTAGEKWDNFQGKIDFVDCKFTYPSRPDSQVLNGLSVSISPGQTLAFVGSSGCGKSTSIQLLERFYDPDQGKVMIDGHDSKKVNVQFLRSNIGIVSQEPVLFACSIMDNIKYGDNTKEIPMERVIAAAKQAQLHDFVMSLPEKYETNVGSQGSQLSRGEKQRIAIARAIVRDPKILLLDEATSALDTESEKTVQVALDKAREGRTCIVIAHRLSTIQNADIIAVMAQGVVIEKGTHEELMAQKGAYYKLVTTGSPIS

SMILES | IC50 (Bile salt export pump [1]) [µM] | IC50 (Bile salt export pump [2]) [µM]
O=C(O)c1cc(-c2ccccc2)nc2ccccc12 [CINCHOPHEN] | 695 | 296
CCCNC(=O)NS(=O)(=O)c1ccc(Cl)cc1 [CHLORPROPAMIDE] | > 1000 | > 1000
NCCc1ccc(O)c(O)c1 [DOPAMINE] | > 1000 | > 1000
C[C@](N)(Cc1ccc(O)c(O)c1)C(=O)O [METHYLDOPA] | > 1000 | > 1000
CCc1ccc(CCOc2ccc(CC3SC(=O)NC3=O)cc2)nc1 (stereo unspecified) [PIOGLITAZONE] | 0.3 | 2
NC(=O)N1c2ccccc2C=Cc2ccccc21 [CARBAMAZEPINE] | > 1000 | > 1000
Cc1onc(-c2c(F)cccc2Cl)c1C(=O)N[C@@H]1C(=O)N2[C@@H]1SC(C)(C)[C@@H]2C(=O)O [FLOXACILLIN] | 209 | 429
O=C(OCC(O)CO)c1ccccc1Nc1ccnc2cc(Cl)ccc12 (stereo unspecified) [GLAFENINE] | 22.3 | 32.2
